This is an account of results in patent US8729035B2, “Synthesis of novel neamine derivatives and use thereof as antibacterial agents” (Universite Joseph Fourier, priority 2008, dated 2014).

Holding throughout (experiment): MIC determination on r-methylase-expressing resistant Gram (-) bacteria
Experiment [1] concerns C. amalonaticus 06AB0010 arm. The format is cell-based. Conditions: Citrobacter amalonaticus, 06AB0010ARM. The method, then: (§1) The molecules were dissolved in water or DMSO at a concentration of 5 or 10 mg/mL, then the solutions were diluted if necessary. A volume of 200 μL of each of them was put onto a 96-well plate.
(§2) C—Determination of the MIC
(§3) The molecules with a screening score of 10 or 100 were selected to determine their MICs relative to the strains tested.
(§4) As for the validation of the strains, the solution of the molecule selected was diluted by a factor of 2, times 2, using the Biomek2000 robot in 96-well plates to cover a wide range of concentrations. To each of these wells was added a volume of inoculum made from the previous days preculture diluted to 1/100th strength. Each well was repeated. Again, controls of non-contamination, growth and resistance/sensitivity to a reference antibiotic were included in the experiment. The plate was incubated at 37° C., and the kinetics of the bacterial proliferation were monitored over 24 hours, by measuring the OD620 nm at 0, 1, 4, 7, and 24 hours.
(§5) The MIC was the lowest concentration found to be capable of inhibiting bacterial proliferation after 24 hours incubation. Having no previous idea of this value it was possible that it might not fall within the range of dilutions chosen. If this was the case the operation had to be repeated adjusting this range.
(§6) Similar measurements were made on various Gram (−) bacteria. The strains tested were provided by R. Vanhoof (E. coli PAZ505H8101 and L58058.1, P. aeruginosa ATCC 27853, Psa.F03, A. lwoffi A1.88-483), Y. Glupczynski (C. amalonaticus Ca06AB0010), J. C. Pechere (P. aeruginosa PA02, PA03), P. Plésiat (P. aeruginosa PA01, PA21, PA22), H. Schweizer (P. aeruginosa PA405, PA406).

Another experiment has as its system E. coli 06AB003 arm. The format is cell-based. The settings on record: Escherichia coli, 06AB003ARM, 24 h. How it is done:
as §1, §2, §3, §4, §5, §6

A further experiment has as its system E. aerogenes 06AB008 arm. The format is cell-based, Enterobacter aerogenes. Conditions: Klebsiella aerogenes, 06AB008ARM, 24 h. The method, then: as §1, §2, §3, §4, §5, §6

SMILES strings stand for the structures. In brackets after ≈: the same amount, converted by molar mass. Read-outs that look alike come from different tables or passages of the source.

Broadly, the MIC is the lowest concentration found to suppress growth. Regarding `NCC1OC(OC2C(N)CC(N)C(OCc3cccc4ccccc34)C2O)C(N)C(OCc2cccc3ccccc23)C1O` (stereo not drawn) [3′,6-di1NM, 3′,6-O,O′-di(naphthyl-1-methylene) neamine], the MIC lay in the range of 4 to 16 µg/mL (≈ 6.64 to 26.5 µM) in experiment [1] (resistant bacteria expressing an RNA methylation enzyme (r-methylase), one value stated for the three strains together, 24 hours incubation, read-out: MIC); 4 to 16 µg/mL (≈ 6.64 to 26.5 µM) with E. coli 06AB003 arm; 4 to 16 µg/mL (≈ 6.64 to 26.5 µM) against E. aerogenes 06AB008 arm.
In the case of `NCC[C@H](O)C(=O)N[C@@H]1C[C@H](N)[C@@H](O[C@H]2O[C@H](CN)[C@@H](O)[C@H](O)[C@H]2O)[C@H](O)[C@H]1O[C@H]1O[C@H](CO)[C@@H](O)[C@H](N)[C@H]1O` [amikacin], the MIC (in experiment [1] (24 h); against E. coli 06AB003 arm; against E. aerogenes 06AB008 arm) was over 128 µg/mL throughout.
As to `NC[C@H]1O[C@H](O[C@H]2[C@H](O)[C@@H](O[C@H]3O[C@H](CO)[C@@H](O)[C@H](N)[C@H]3O)[C@H](N)C[C@@H]2N)[C@H](N)C[C@@H]1O` [tobramycin], the minimal inhibitory concentration (MIC) (in experiment [1] (24 h); against E. coli 06AB003 arm; in the experiment on E. aerogenes 06AB008 arm) was over 128 µg/mL each time.
